{"source": "paper PMC12005767", "about": "(Advanced Science, 2025)", "key": {"HDAC3": {"target": "T1, HDAC3 (Homo sapiens, UniProt O15379)", "T1 construct": "purchased BPS Bioscience", "T1 sequence (O15379 whole entry)": "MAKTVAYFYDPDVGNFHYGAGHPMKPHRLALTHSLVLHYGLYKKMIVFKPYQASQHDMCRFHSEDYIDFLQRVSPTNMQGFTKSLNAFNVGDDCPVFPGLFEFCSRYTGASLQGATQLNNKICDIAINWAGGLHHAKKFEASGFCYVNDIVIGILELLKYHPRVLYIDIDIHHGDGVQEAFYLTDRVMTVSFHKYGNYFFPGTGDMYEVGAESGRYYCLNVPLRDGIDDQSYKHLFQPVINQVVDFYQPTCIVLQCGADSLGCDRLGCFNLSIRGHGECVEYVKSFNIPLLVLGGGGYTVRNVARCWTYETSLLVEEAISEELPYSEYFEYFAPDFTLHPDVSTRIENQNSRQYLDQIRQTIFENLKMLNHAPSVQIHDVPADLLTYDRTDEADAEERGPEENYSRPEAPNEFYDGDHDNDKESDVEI", "T1 sequence (Q9Y618 395-489 partner limits assumed)": "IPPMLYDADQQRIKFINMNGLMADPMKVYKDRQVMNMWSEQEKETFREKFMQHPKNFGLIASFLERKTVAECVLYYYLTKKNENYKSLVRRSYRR", "test": "In vitro HDACs inhibition fluorescence assay, HDAC3", "format": "biochemical", "details": "mean ± SEM", "protocol": "(§1) In Vitro HDACs Inhibition Fluorescence Assay: For the inhibitory activity against HDAC1‐10, enzymes were also procured from BPS Bioscience. The in vitro […] inhibition assays were conducted following the established method described previously.^[ [45] ^] The working concentrations of HDAC1‐10 were 4 × 10^−9 M. The fluorogenic substrate of HDAC1, 2, 3, and 6 was Boc‐Lys (acetyl)‐AMC, and the substrate of HDAC4, 5, 7, 8, 9, and 10 was Boc‐Lys (trifluoroacetyl) AMC. The developer solution consists of 30 mg mL^−1 trypsin and 5 × 10^−6 M TSA. A standing period of 30 min was sufficient before assessing the fluorescence intensity."}, "HDAC8": {"target": "T2, HDAC8 (Homo sapiens, UniProt Q9BY41)", "T2 construct": "purchased BPS Bioscience", "T2 sequence (Q9BY41 whole entry)": "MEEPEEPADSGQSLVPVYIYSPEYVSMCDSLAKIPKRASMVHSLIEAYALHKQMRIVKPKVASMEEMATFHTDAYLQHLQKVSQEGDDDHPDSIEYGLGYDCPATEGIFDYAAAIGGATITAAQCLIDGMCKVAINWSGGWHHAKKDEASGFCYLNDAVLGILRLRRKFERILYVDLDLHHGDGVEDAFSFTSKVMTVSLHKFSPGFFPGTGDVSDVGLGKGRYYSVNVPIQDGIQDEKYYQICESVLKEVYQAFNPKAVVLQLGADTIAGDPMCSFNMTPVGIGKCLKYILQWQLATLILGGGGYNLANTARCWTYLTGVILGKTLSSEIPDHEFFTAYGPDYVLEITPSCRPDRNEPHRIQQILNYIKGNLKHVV", "test": "In vitro HDACs inhibition fluorescence assay, HDAC8", "format": "biochemical", "protocol": "as §1"}, "SIRT2": {"target": "SIRT2 (Homo sapiens, UniProt Q8IXJ6)", "sequence (Q8IXJ6 whole entry, species assumed)": "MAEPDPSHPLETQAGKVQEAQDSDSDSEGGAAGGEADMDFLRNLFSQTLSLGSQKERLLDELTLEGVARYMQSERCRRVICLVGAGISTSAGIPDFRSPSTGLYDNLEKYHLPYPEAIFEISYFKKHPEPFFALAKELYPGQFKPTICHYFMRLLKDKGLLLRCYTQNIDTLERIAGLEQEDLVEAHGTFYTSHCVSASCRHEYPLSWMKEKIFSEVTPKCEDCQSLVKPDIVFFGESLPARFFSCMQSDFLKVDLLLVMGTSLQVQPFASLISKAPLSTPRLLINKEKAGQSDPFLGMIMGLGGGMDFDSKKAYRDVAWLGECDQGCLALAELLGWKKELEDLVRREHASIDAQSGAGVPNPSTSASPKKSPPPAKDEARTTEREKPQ", "test": "SIRT2 inhibition fluorescence assay (AcIQF substrate)", "format": "biochemical", "protocol": "For the inhibitory activity against SIRT2, substrate is the AcIQF.^[ [46] ^] Dilution series compound was incubated with the SIRT2 enzyme ([…]) for 30 min at 25 °C. Then AcIQF (5 × 10^−3 M) and NAD^+ ([…]) were added to start the reaction at 25 °C. 2 h later, […] stop solution (containing ≈2 U mL^−1 trypsin and 4 × 10^−3 M nicotinamide) was added to stop the reactions. Then the mixture was incubated for 30 min, and the fluorescence intensity was assessed."}, "[1]": {"test": "Pharmacokinetic study in ICR mice (i.v. and p.o.)", "format": "in vivo", "details": "male, mouse, plasma; for MRT inf: read-out: MRT0-inf", "protocol": "Pharmacokinetics study was performed by Medicilon Preclinical Research (Shanghai) LLC. Male ICR mice, which were purchased from Sino‐British SIPPR Lab Animal Ltd., Shanghai (25–30 g, 14 weeks of age), were fasted overnight before administration and resumed food 6 h after initial plasma sampling. Compound was dissolved in solution containing 10% DMAC, 40% PEG‐400, and 50% water and was delivered to three animals by intravenous bolus injection (i.v.) and oral gavage (p.o.) at a dose of 5 and 20 mg kg^−1 with a volume of 5 and 10 mL kg^−1, respectively. Blood samples were collected at the following time points: 5, 15, 30 min and 1, 2, 4, 6, 8, and 24 h post dose administration. The blood samples were taken via submandibular vein, 30 µL/time point.\nSample were placed in tubes containing K2‐EDTA and stored on ice until centrifuged. The blood samples were centrifuged at 6800 g for 6 min at 2–8 °C within 1 h after collected and stored frozen at ≈−80 °C. A 20 µL plasma sample was treated with 400 µL of methanol containing 10 ng mL^−1 IS to precipitate the protein. The mix was then vortexed for a minute and centrifuged at 18 000 g for 7 min. The resulting supernatant (400 µL) was transferred to a 96‐well plate, and an injection of 1 µL of this supernatant was used for the LC‐MS/MS analysis. The animal protocols used in this study were approved by the Preclinical R&D Unit of Medicilon Institutional Animal Care and Use Committee (IACUC) (26030‐21002) and operated in accordance with the Guide for the Care and Use of Laboratory Animals published by the National Institutes of Health (NIH)."}, "[2]": {"system": "acetylation of histone H3, histone H4, and α-tubulin", "test": "Acetylation of histone H3, histone H4 and α-tubulin in HEK293T cells (immunoblot)", "format": "cell-based", "details": "HEK293T cells, 0.25, 0.5 and 1 × 10^−6 M, 24 h", "protocol": "(§2) Western blot was carried out as described.^[ [49] ^] In brief, samples were lysed with a lysis buffer. The same quantity of total proteins (40–60 µg) from each sample was separated on SDS‐PAGE followed by transfer onto a nitrocellulose filter membrane and incubation with the indicated antibodies. After incubation with secondary antibodies, the protein bands were visualized using a chemiluminescence imaging system. All samples in the same group were processed simultaneously."}, "AML12 cells": {"system": "AML12 cells", "test": "FFA-induced lipid accumulation in AML12 cells (Oil Red O)", "format": "cell-based", "details": "24 h"}, "[3]": {"system": "SREBP1c, FASN, SCD1, CPT1A, PGC1α, PPARα expression in AML12 cells", "test": "Protein and mRNA expression of DNL and fatty acid oxidation genes in FFA-treated AML12 cells", "format": "cell-based", "protocol": "as §2\nCells and liver tissues were extracted for total RNA. A reverse transcription kit was used to synthesize cDNA. qRT‐PCR was performed with the primers listed in Table S1 (Supporting Information) using the SYBR green PCR master mix. The coding sequence of the target gene was found in NCBI, and Primer3 (v.0.4.0) was used to design amplification primers. The results were normalized by β‐actin in the corresponding sample."}, "ICR mice": {"system": "ICR mice", "test": "Subacute toxicity study in ICR mice", "format": "in vivo", "protocol": "For evaluation of subacute toxicity, ICR mice were divided into two groups (n = 8 per group (4M, 4F)). The B6 was prepared in vehicle (10% DMSO and 90% 0.5% HPMC aqueous solution) to administer once daily, by oral gavage for 30 d in the treatment groups. To the control groups, vehicle was administered orally. The animals were monitored for clinical and behavioral symptoms such as body weight, diarrhea, immobility, and mortality during the first day and thereafter for 30 d."}, "[4]": {"details": "ICR, po, 20 mg/kg, p.o. at 20 mg/kg"}, "[5]": {"details": "50 mg kg^−1 p.o. daily for 30 d, vs control group"}}, "note": "Where two headings read alike, the source gives them in different places.", "data": [{"smiles": "CCCCCOCCCCCNNC(=O)c1ccc(CNC(=O)c2ccccc2)cc1", "note": "[B6]", "values": [{"measurement": "IC50", "setting": "HDAC3", "result": "> 10", "unit": "µM"}, {"measurement": "IC50", "setting": "HDAC8", "result": 5, "unit": "µM"}, {"measurement": "IC50", "setting": "HDAC8; mean ± SEM", "result": "4.76 ± 0.159", "unit": "µM"}, {"measurement": "inhibitory activity against other HDAC subtypes, including SIRT2", "setting": "SIRT2; at a concentration of 10 × 10^−6 M", "result": "no significant inhibitory activity"}, {"measurement": "IC50", "setting": "SIRT2; mean ± SEM", "result": "> 10", "unit": "µM"}, {"measurement": "AUC(0-inf)", "setting": "[1]; [4]", "result": 3480, "unit": "ng·h/mL"}, {"measurement": "Cmax", "setting": "[1]; [4]", "result": 2610, "unit": "ng/mL"}, {"measurement": "half-life", "setting": "[1]; iv, i.v. at 5 mg/kg", "result": 3.8, "unit": "h"}, {"measurement": "clearance", "setting": "[1]; iv, i.v. at 5 mg/kg", "result": "39.5 ± 13.5", "unit": "mL/min/kg"}, {"measurement": "MRT inf", "setting": "[1]; iv, i.v. at 5 mg/kg", "result": "0.23 ± 0.02", "unit": "h"}, {"measurement": "bioavailability", "setting": "[1]; oral, p.o. at 20 mg/kg vs i.v. at 5 mg/kg, read-out: oral bioavailability (F%)", "result": 34.5, "unit": "%"}, {"measurement": "MRT inf", "setting": "[1]; po, p.o. at 20 mg/kg", "result": "2.6 ± 0.8", "unit": "h"}, {"measurement": "half-life", "setting": "[1]; po, p.o. at 20 mg/kg", "result": 2.3, "unit": "h"}, {"measurement": "acetylation levels of histones H3 and H4 or tubulin", "setting": "[2]", "result": "no effect"}, {"measurement": "concentration of maximal effect on lipid accumulation", "setting": "AML12 cells", "result": 500, "unit": "nM"}, {"measurement": "FFA-induced lipid accumulation", "setting": "AML12 cells; various concentrations", "result": "significantly mitigated"}, {"measurement": "FFA-suppressed protein and mRNA expression of CPT1A, PGC1α and PPARα", "setting": "[3]", "result": "partially restored"}, {"measurement": "FFA-upregulated protein and mRNA expression of SREBP1c, FASN and SCD1", "setting": "[3]; 0.5 × 10^−6 M, 24 h", "result": "reversed"}, {"measurement": "overall health and behavior", "setting": "ICR mice; 50 mg kg^−1 p.o. daily for 30 d, ICR mice", "result": "no signs of toxicity"}, {"measurement": "body weight of male and female mice", "setting": "ICR mice; [5]", "result": "did not induce any significant abnormal changes"}, {"measurement": "histopathological evaluations of liver, kidneys, heart, spleen and lungs", "setting": "ICR mice; [5]", "result": "no significant differences"}, {"measurement": "therapeutic window", "setting": "ICR mice; 50 mg kg^−1 vs effective dose 5 mg kg^−1", "result": "at least tenfold"}]}]}
